We go through 1 compound from patent publication US20070276025A1, “Indirubin-Type Compounds, Compositions, and Methods for Their Use” (priority 2003, published 2007).

For orientation: EC50 means the midpoint of the concentration-response curve.

Read-outs that look alike come from different tables or passages of the source. Bounds are passed on as bounds.

In one data set the target is GSK-3α/β. The data set is described as follows: GSK-3α/β kinase assay (GS-1 peptide, 15 μM ATP). The class given is biochemical, porcine.
The target of the next data set is CDK5/p25 (Homo sapiens, UniProt Q00535). Kind of data set: CDK5/p25 kinase assay (histone H1, 15 μM ATP). The data set is classed as biochemical, mammalian. The conditions noted are these: read-out: IC50 CDK5/p25.
Data set [1] has as its system BP8 (AhR −/−) hepatoma cells. The data set is described as follows: Cell viability MTT assay, BP8 cells. The conditions noted are these: range of concentrations, 24 and 48 hr. The data set is classed as cell-based, mouse.
In data set [2] the test system is p27^KIP1 in 5L (AhR +/+) cells. The data set is described as follows: p27KIP1 expression by Western blotting, 5L cells. As to conditions: 10 μM indirubins or 0.1 μM TCDD, 24 hr. The class given is cell-based, mouse.
Data set [3] deals with BP8 (AhR −/−) hepatoma cells. The data set is described as follows: Cell proliferation by direct counting, BP8 cells. The data set is classed as cell-based, mouse. As to conditions: 20 μM, 24 and 48 hr. The procedure: (§1) The protocol followed was similar to those previously described in Weiss C, Kolluri S K, Kiefer F and Göttlicher M. (1996). Exp. Cell Res., 226, 154-163, and Kolluri S K, Weiss C, Koff A and Gbttlicher M. (1999). Genes & Dev., 13, 1742-1753. The mouse 5L hepatoma cell line (AhR +/+) and BP8 (an AhR −/− subclone) were kindly provided by Dr. M. Gottlicher (Forschungszentrun Karlsruhe, Institute of Genetics, 76021 Karlsruhe, Germany). Cells were cultured in Dulbecco's modified Eagle medium (DMEM) (Biowhittaker) supplemented with 2 mM L-glutamine (Eurobio), 10% fetal calf serum (FCS), and gentamycin (Gibco BRL) at 37° C. in an atmosphere of 7% CO2. […] Control experiments were carried out using appropriate dilutions of DMSO.
(§2) The effects of IO and MeOO (20 μM) on the proliferation rate of 5L and BP8 cell lines was determined by counting directly the number of live cells after 24 and 48 hr of exposure to the indirubins (FIG. 17).

For data set [4], the target named is T1, AhR (Mus musculus, UniProt P30561).
T1 sequence (P30561 1-848): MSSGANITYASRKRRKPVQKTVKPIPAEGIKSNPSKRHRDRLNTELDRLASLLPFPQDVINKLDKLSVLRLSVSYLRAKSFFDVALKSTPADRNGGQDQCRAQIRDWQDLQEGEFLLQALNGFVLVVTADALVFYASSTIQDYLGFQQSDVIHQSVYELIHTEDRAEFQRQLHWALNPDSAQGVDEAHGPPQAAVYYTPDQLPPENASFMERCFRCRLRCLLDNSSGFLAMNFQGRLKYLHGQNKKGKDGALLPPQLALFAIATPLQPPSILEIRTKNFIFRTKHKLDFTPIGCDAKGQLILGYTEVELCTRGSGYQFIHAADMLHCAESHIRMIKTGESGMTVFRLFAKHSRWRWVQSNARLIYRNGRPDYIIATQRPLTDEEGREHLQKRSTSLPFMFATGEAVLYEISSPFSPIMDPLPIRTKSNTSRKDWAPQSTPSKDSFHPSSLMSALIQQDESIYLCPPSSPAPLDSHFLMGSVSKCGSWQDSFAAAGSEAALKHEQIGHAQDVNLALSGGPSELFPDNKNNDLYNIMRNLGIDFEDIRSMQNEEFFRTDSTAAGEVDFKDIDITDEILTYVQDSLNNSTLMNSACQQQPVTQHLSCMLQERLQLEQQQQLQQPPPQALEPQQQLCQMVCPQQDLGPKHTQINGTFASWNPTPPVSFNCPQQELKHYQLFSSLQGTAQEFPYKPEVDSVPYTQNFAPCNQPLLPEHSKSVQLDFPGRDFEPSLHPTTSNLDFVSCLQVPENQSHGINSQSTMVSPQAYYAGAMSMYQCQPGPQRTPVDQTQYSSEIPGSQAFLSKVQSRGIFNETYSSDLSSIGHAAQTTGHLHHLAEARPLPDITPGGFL
As to conditions: read-out: EC50 AhR (hepatoma cell line); Table 4; EGFP at 24 hours.

Data set [5] concerns 5L (AhR +/+) hepatoma cells. The data set is described as follows: Cell proliferation by direct counting, 5L cells. The data set is classed as cell-based, mouse. The conditions noted are these: 20 μM, 24 and 48 hr. The procedure: as §1, §2
For data set [6], the target named is AhR (Homo sapiens, UniProt P35869).
Data set [7] has as its system 5L (AhR +/+) hepatoma cells. Kind of data set: Cell viability MTT assay, 5L cells. The data set is classed as cell-based, mouse. As to conditions: range of concentrations, 24 and 48 hr.
For data set [8], the system named is 5L (AhR +/+) hepatoma cells. Kind of data set: FACS cell cycle analysis, 5L cells. The data set is classed as cell-based, mouse. As to conditions: 10 μM indirubins or 100 nM TCDD, 24 hr.
In data set [9] the test system is BP8 (AhR −/−) hepatoma cells. The data set is described as follows: FACS cell cycle analysis, BP8 cells. The class given is cell-based, mouse. As to conditions: 10 μM indirubins or 100 nM TCDD, 24 hr. The procedure: Flow cytometry analysis (Coulter EPIX XL2, Beckman, Calif., USA) of cellular DNA content was performed on ethanol-fixed cell suspensions after ribonuclease A III treatment (Sigma) and propidium iodide (Sigma) staining, as previously described (French et al. (1985) Cytometry 6: 47-53). Percentages of cells in G0/G1, S and G2/M phases of cell cycle were then calculated on the basis of DNA distribution histograms provided by the software manufacturer.
Both 5L and BP8 cell lines were treated with 10 μM IO, MeIO, BIO, MeBIO or 100 nM TCDD for 24 hr.

Another data set concerns the target CDK1/cyclin B. The data set is described as follows: CDK1/cyclin B kinase assay (histone H1, 15 μM ATP). The data set is classed as biochemical, starfish (Marthasterias glacialis).
In data set [10] the test system is GSK-3α (Tyr276) / GSK-3β (Tyr216). The data set is described as follows: Tyrosine phosphorylation of GSK-3 in SH-SY5Y cells (Western blot). The data set is classed as cell-based, human. The conditions noted are these: 1 μM, 12 hr. From the text:
GSK-3α and GSK-3β activity is enhanced by the phosphorylation of a specific tyrosine residue (Tyr276 and Tyr216, respectively) (Hughes et al. (1993) EMBO J. 12: 803-808; Dajani et al. (2003) EMBO J. 22: 494-501). The tyrosine kinase responsible for this phosphorylation in mammals is unknown, but there is some evidence that it indirectly depends on GSK-3 activity (Bhat et al. (2000) Proc. Natl. Acad. Sci. U.S.A. 97: 11074-11079; Shaw et al. (1997) FEBS Lett. 416: 307-311). […] SH-SY5Y cells were exposed to IO, MeIO, BIO and MeBIO for 12 hr and the phosphorylation of Tyr276 (GSK-3α) and Tyr216 (GSK-3β) was estimated by Western blotting with phospho-specific antibodies. […] This was accompanied by an increased level in total GSK-3β, total β-catenin, and dephospho-&catenin.
In general terms: A western blot detects proteins with antibodies after separation by electrophoresis.

Sequence of CDK5/p25 (Q00535 whole entry, species assumed): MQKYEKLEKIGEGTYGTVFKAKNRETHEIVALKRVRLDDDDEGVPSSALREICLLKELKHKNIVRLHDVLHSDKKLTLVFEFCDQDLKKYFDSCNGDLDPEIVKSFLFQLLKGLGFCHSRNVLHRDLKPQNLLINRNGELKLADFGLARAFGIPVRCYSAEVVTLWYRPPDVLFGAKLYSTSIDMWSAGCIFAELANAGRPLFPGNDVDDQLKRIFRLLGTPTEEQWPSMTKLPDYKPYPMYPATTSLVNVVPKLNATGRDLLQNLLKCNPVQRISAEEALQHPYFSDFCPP
Sequence of CDK5/p25 (Q15078 99-307 partner limits assumed, species assumed): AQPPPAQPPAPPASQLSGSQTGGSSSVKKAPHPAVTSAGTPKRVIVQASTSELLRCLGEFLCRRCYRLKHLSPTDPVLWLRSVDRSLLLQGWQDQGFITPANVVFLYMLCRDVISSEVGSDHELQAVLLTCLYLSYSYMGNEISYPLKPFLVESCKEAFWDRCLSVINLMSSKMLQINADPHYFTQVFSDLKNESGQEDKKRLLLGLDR
Sequence of AhR (Homo sapiens, UniProt P35869) (P35869 11-848): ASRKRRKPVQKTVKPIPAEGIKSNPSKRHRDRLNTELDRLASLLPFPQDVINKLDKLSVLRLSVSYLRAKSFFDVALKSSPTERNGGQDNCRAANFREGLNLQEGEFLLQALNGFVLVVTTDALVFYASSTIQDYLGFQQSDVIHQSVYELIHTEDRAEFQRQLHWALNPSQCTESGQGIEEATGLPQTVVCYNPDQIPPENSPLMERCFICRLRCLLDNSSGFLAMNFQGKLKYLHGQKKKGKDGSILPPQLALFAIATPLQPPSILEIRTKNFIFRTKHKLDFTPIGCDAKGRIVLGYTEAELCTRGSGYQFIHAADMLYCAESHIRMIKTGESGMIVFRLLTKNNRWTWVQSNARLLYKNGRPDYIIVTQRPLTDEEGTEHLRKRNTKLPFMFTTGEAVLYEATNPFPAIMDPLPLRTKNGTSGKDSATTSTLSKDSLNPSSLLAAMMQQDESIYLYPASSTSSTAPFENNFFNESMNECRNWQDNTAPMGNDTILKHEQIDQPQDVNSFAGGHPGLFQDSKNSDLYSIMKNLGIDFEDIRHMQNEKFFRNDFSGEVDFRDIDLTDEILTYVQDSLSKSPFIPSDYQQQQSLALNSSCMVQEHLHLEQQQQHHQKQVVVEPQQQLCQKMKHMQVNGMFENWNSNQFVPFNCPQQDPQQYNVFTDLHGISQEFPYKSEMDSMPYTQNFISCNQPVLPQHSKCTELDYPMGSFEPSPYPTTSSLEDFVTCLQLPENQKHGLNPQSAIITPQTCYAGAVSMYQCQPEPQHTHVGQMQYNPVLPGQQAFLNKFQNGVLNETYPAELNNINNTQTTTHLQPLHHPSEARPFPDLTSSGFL
Sequence of AhR (Homo sapiens, UniProt P35869) (P27540 whole entry partner): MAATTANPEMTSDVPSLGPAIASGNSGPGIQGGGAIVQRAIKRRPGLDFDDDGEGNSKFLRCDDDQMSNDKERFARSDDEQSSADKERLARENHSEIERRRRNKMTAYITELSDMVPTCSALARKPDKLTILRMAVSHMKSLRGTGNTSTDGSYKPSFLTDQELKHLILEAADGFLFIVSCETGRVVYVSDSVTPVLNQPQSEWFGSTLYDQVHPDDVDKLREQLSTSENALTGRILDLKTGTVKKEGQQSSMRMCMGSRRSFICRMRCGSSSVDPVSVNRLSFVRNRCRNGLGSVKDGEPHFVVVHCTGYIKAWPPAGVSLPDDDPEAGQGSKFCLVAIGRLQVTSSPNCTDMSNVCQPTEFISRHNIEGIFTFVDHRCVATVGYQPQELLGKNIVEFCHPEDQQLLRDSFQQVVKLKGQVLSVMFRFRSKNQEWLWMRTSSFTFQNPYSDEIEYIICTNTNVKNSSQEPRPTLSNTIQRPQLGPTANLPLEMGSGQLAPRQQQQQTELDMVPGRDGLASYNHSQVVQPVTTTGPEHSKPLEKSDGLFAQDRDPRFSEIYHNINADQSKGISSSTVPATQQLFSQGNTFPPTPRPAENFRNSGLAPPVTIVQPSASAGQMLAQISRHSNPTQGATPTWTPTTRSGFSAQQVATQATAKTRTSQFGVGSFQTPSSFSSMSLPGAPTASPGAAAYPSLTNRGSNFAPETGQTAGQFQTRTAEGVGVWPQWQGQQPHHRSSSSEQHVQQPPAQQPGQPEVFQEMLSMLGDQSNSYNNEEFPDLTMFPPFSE

Take `CN1C(=O)C(=C2Nc3ccccc3C2=NO)c2ccccc21` [13d, 1-Methylindirubin-3′-oxime]: the IC50 on GSK-3α/β (Table 1, read-out: IC50 GSK-3 α/β) was over 100 µM; on GSK-3α/β (Table 4, read-out: IC50 GSK-3) it was over 100 µM; at GSK-3α/β (Table 5, read-out: IC50 GSK-3α/β), over 100 µM; at CDK5/p25 (Table 1), over 100 µM; at CDK5/p25 (Table 5) it was over 100 µM; on CDK1/cyclin B (Table 1, read-out: IC50 CDK1/cyclin B), 73 µM. The IC50 on CDK1/cyclin B (Table 4, read-out: IC50 CDK1/cycin B) was determined as 73 µM; at CDK1/cyclin B (Table 5, read-out: IC50 CDK1/cyclin B) it was 73 µM. In data set [1], the “survival of BP8 cells (MTT)” value is listed as “apparently not affected”. For the same compound, the “p27^KIP1 expression in 5L cells” value in data set [2] is listed as “very effective p27^KIP1 inducers”. Moreover, in data set [3], the “proliferation rate of BP8 cells” value was “did not effect the proliferation”. The EC50 on AhR [4] was found to be 0.129 µM; at AhR [6], 0.008 µM. For the same compound, in [5], the “proliferation rate of 5L cells” value is “reduced the rate of proliferation only in 5L cells”. In addition, in data set [7], the “survival of 5L cells (MTT)” value is reported as “apparently not affected”. In addition, the “accumulation of 5L cells in G1 phase” value in data set [8] is reported as “very striking accumulation”. For the same compound, the “accumulation of BP8 cells in G1 phase” value in [9] is listed as “but not of AhR −/− cells (BP8)”. The “level of tyrosine phosphorylation of both GSK-3 isoforms” value in data set [10] is reported as “None of these changes were observed”.
